Results as given in paper PMC11946255, “Extraction of Cannabinoids and Terpenes from Hemp Flowers and Leaves (Cannabis sativa L., Futura 75): Chemical Profiling and Evaluation of Anticancer Properties” (Molecules, 2025).
In brackets after ≈: the same amount, converted by molar mass.

Experiments:
[1] = system: gastric adenocarcinoma AGS; assay: Antiproliferative activity, SRB assay, AGS; type: cell-based, human; settings: for IC50 AGS / IC50: 72 h incubation, SRB, mean ± SD; for Calculated Selectivity Index SI AGS: SI = IC50 MCF-10A / IC50 AGS; for IC50: Homo sapiens
[2] = system: colon adenocarcinoma HT-29; assay: Antiproliferative activity, SRB assay, HT-29; type: cell-based, human; settings: for IC50 HT-29 / IC50: 72 h incubation, SRB, mean ± SD; for Calculated Selectivity Index SI HT-29: SI = IC50 MCF-10A / IC50 HT-29; for IC50: Homo sapiens, HT-29
[3] = system: normal breast epithelial MCF-10A cells; assay: Cytotoxicity, SRB assay, MCF-10A; type: cell-based, human; settings: 72 h incubation, non-tumorigenic cells, mean ± SD; for IC50: Homo sapiens, MCF-10A
Procedure: (§1) Two extracts, Futu 1 and Futu 2, were selected for the study of their antiproliferative activity against six human cancer cell lines: biphenotypic B myelomonocytic leukemia (MV4-11), lung carcinoma (A549), colon adenocarcinoma (HT-29), gastric adenocarcinoma (AGS), and breast carcinomas (MCF-7 (ER+) and MDA-MB-468 (TNBC)). Additionally, their cytotoxicity and potential safety for use were assessed on normal human breast epithelial cells (MCF-10A). This study aimed to determine the effectiveness of these extracts in inhibiting cancer cell growth while ensuring minimal toxicity to normal cells. The first extract, Futu 1, contained the highest amount of cannabinoid fraction (51.57%) among all tested extracts, and the terpene fraction consisted of 9.8% monoterpenes and 90.2% of sesquiterpenes. Futu 1 was obtained using pressurized extraction with the following process parameters: a pressure of 1 bar, a solvent mixture of hexane/ethanol (7:3, v/v), and a temperature of 25 °C. The second extract, Futu 2, was selected for its higher monoterpene content (19.6%) in the terpene fraction in comparison to sesquiterpenes (80.4%) and its 49.49% content of cannabinoids. This extract was also obtained via pressurized extraction, using a pressure of 1 bar, a solvent mixture of hexane/isopropanol (7:3, v/v), and a temperature of −55 °C. After 72 h of incubation of cancer and normal cells with cannabinoids and the extracts Futu 1 or Futu 2, antiproliferative activity was assessed using the MTT assay (for MV4-11) or the SRB assay. The percentage of cell growth inhibition was calculated and IC50 values were determined (Table 3).
(§2) Human cell lines: biphenotypic B myelomonocytic leukemia MV4-11, gastric adenocarcinoma AGS, colon adenocarcinoma HT-29, and normal breast MCF-10A cells were obtained from American Type Culture Collection (ATCC) in the United States; lung carcinoma A549 and breast cancer MCF-7 were obtained from European Collection of Authenticated Cell Cultures (ECACC). Human breast cancer MDA-MB-468 cells were obtained from Leibniz Institute DSMZ (German Collection of Microorganisms and Cell Cultures). All the cell lines were maintained at the Hirszfeld Institute of Immunology and Experimental Therapy, PAS, Wroclaw, Poland. MV4-11 and MDA-MB-468 cells were cultured in RPMI 1640 medium (IIET PAS, Wrocław, Poland) with 1.0 mM sodium pyruvate (only MV4-11) and 10% (MV4-11) or 20% (MDA-MB-468) fetal bovine serum (FBS) (all from Merck, Darmstadt, Germany). A549, HT-29, and AGS cells were cultured in RPMI 1640 + Opti-MEM (1:1) medium (IIET PAS, Wrocław, Poland, and Gibco, London, UK) supplemented with 5% FBS (Merck, Darmstadt, Germany) and 1.0 mM sodium pyruvate (only HT-29). The MCF-7 cells were cultured in Eagle medium (IIET PAS, Wrocław, Poland) supplemented with 8 microg/mL of insulin and 1% MEM NON-Essential amino acid (all Merck, Darmstadt, Germany). Normal breast epithelial MCF-10A cells were cultured in the HAM’S F-12 medium, which was supplemented with 10% Horse Serum (Gibco, London, UK), 20 ng/mL EGFh, 10 µg/mL insulin, and 0.5 µg/mL Hydrocortisone and 0.05 mg/mL Cholera Toxin from Vibrio cholerae were from Merck, Darmstadt, Germany.
The antiproliferative activity of cannabinoids (in concentrations of 1 mg/mL in methanol) and the plant extracts named Futu1 and Futu2 (the solutions were prepared by dissolving the substance in methanol to a concentration of 50 mg/mL) were tested against 6 cancer cell lines. Their cytotoxicity was also tested against one normal cell line. The tested mixtures of compounds were diluted in a culture medium to reach the final concentrations. Before adding the tested compounds (24 h prior), the cells were plated in 384-well plates (Greiner Bio-One) at a density of 1 × 10^3 (A549), 1.5 × 10^3 (MDA-MB-468, HT-29, MCF-7), or 2 × 10^3 (AGS, MCF-10A) cells per well. The MV4-11 cells were plated in 96-well plates (Corning) at a density of 5 × 10^3 cells per well. […]

lung carcinoma A549 = assay: Antiproliferative activity, SRB assay, A549; type: cell-based, human; settings: for IC50 A549 / IC50: 72 h incubation, SRB, mean ± SD; for Calculated Selectivity Index SI A549: SI = IC50 MCF-10A / IC50 A549; for IC50: Homo sapiens, A549
[4] = system: breast cancer MCF-7 (ER+); assay: Antiproliferative activity, SRB assay, MCF-7; type: cell-based, human; settings: for IC50 MCF-7 / IC50: 72 h incubation, SRB, mean ± SD; for Calculated Selectivity Index SI MCF-7: SI = IC50 MCF-10A / IC50 MCF-7; for IC50: Homo sapiens, MCF7
[5] = system: biphenotypic B myelomonocytic leukemia MV4-11; assay: Antiproliferative activity, MTT assay, MV4-11; type: cell-based, human; settings: 2 μg/mL, 72 h, compared to untreated control cells
Procedure: as §1
as §2, with “The MCF-7 cells were cultured in Eagle medium (IIET PAS, Wrocław, Poland) supplemented with 8 microg/mL of insulin and 1% MEM NON-Essential amino acid (all Merck, Darmstadt, Germany). Normal breast epithelial MCF-10A cells were cultured in the HAM’S F-12 medium, which was supplemented with 10% Horse Serum (Gibco, London, UK), 20 ng/mL EGFh, 10 µg/mL insulin, and 0.5 µg/mL Hydrocortisone and 0.05 mg/mL Cholera Toxin from Vibrio cholerae were from Merck, Darmstadt, Germany.” left out

[6] = system: lung (A549), colon (HT-29), gastric (AGS), and breast (MCF-7, ER+) cancer cell lines; assay: Antiproliferative activity, SRB assay, summarised over the cancer cell lines; type: cell-based; settings: Homo sapiens; 72 h, range across the four cancer cell lines
Procedure: as §1, with “The second extract, Futu 2, was selected for its higher monoterpene content (19.6%) in the terpene fraction in comparison to sesquiterpenes (80.4%) and its 49.49% content of cannabinoids. This extract was also obtained via pressurized extraction, using a pressure of 1 bar, a solvent mixture of hexane/isopropanol (7:3, v/v), and a temperature of −55 °C.” left out, “3). […]” for “3).”

Row | SMILES | IC50 AGS [1] [µg/mL] | Calculated Selectivity Index SI AGS [1] | IC50 HT-29 [2] [µg/mL] | Calculated Selectivity Index SI HT-29 [2] | IC50 MCF-10A [3] [µg/mL] | IC50 A549 (lung carcinoma A549) [µg/mL] | Calculated Selectivity Index SI A549 (lung carcinoma A549) | IC50 MCF-7 [4] [µg/mL] | Calculated Selectivity Index SI MCF-7 [4] | Stimulation of MV4-11 cell growth [5] [%] | IC50 [1] [µg/mL] | IC50 [2] [µg/mL] | IC50 [3] [µg/mL] | IC50 [6] [µg/mL] | IC50 (lung carcinoma A549) [µg/mL] | IC50 [4] [µg/mL]
1 | CCCCCc1cc(O)c2c(c1)OC(C)(C)[C@@H]1CCC(C)=C[C@@H]21 (relative stereo) [THC, (–)-trans-Δ^9-tetrahydrocannabinol] | 6.35 ± 1.35 (≈ 20.2 µM) | 1.75 | 3.73 ± 0.59 (≈ 11.9 µM) | 2.98 | 11.13 ± 0.72 (≈ 35.4 µM) | 3.94 ± 0.44 (≈ 12.5 µM) | 2.82 | 8.4 ± 1.26 (≈ 26.7 µM) | 1.33 | 180 | – | – | – | – | – | –
2 | C=C(C)[C@@H]1CCC(C)=C[C@H]1c1c(O)cc(CCCCC)cc1O [CBD, cannabidiol] | – | 2.82 | – | 3.47 | – | – | 3.68 | – | 2.87 | 140 | 3.74 ± 0.28 (≈ 11.9 µM) | 3.04 ± 0.52 (≈ 9.67 µM) | 10.6 ± 0.63 (≈ 33.5 µM) | 2.87 to 3.74 (≈ 9.13 to 11.9 µM) | 2.87 ± 0.24 (≈ 9.13 µM) | 3.67 ± 0.55 (≈ 11.7 µM)
3 | CCCCCc1cc(O)c(C/C=C(\C)CCC=C(C)C)c(O)c1 [CBG, cannabigerol] | – | 1.76 | – | 1.07 | – | – | 2.89 | – | 1.45 | – | 6.11 ± 1.31 (≈ 19.3 µM) | 10 ± 1.14 (≈ 31.7 µM) | 10.7 ± 0.71 (≈ 33.9 µM) | – | 3.71 ± 0.46 (≈ 11.7 µM) | 7.43 ± 1.43 (≈ 23.5 µM)
4 | C=C(C)[C@@H]1CCC(C)=C[C@H]1c1c(O)cc(CCC)cc1O [CBDV] | 8.4 ± 1.98 (≈ 29.3 µM) | 1.34 | 3.6 ± 0.4 (≈ 12.6 µM) | 3.12 | 11.24 ± 0.26 (≈ 39.2 µM) | 6.22 ± 2.26 (≈ 21.7 µM) | 1.81 | 8.43 ± 2.05 (≈ 29.4 µM) | 1.33 | – | – | – | – | – | – | –
5 | CCCCCc1cc(O)c2c(c1)OC(C)(CCC=C(C)C)C=C2 (centres unmarked) [CBC, cannabichromene] | – | 1.9 | – | 1.77 | – | – | 3.23 | – | 1.39 | 140 | 5.53 ± 0.88 (≈ 17.6 µM) | 5.94 ± 1.86 (≈ 18.9 µM) | 10.5 ± 0.46 (≈ 33.5 µM) | – | 3.26 ± 0.2 (≈ 10.4 µM) | 7.56 ± 1.52 (≈ 24 µM)
6 | CCCCCc1cc(O)c2c(c1)OC(C)(C)c1ccc(C)cc1-2 [CBN, cannabinol] | – | 1.75 | – | 1.78 | – | – | 3.27 | – | 1.87 | 140 | 6.18 ± 0.98 (≈ 19.9 µM) | 6.07 ± 2.11 (≈ 19.6 µM) | 10.8 ± 0.68 (≈ 34.8 µM) | – | 3.3 ± 0.15 (≈ 10.6 µM) | 5.79 ± 1.79 (≈ 18.7 µM)
